Test results taken from patent US9980943B2, “Methods of treating muscular dystrophy” (BOARD OF REGENTS OF THE NEVADA SYSTEM OF HIGHER EDUCATION, …, priority 2013, dated 2018).

Columns and labels:
Format in all cases: cell-based, mouse
[1] = tested on: β-galactosidase in CMV-LacZ C2C12 myotubes; assay: CMV-LacZ secondary screen in C2C12 myotubes (β-Gal stabilizing assay); conditions: for CMV-LACZ in Myotubes (β-galactosidase activity relative to DMSO): CMV-LacZ C2C12 myotubes, 96-well format
Source text: In order to determine compounds that acted to stabilize β-gal in myogenic cells, a CMV-LacZ C2C12 cell line was used in a secondary screen. The EGFP gene from the pEGFP (Clontech) vector was replaced by LACZ PCR product with digests of the vector/PCR product performed using EcoRI (NEB) and NotI (NEB) and ligated using T4 DNA Ligase (NEB) following standard procedures to produce the CMV-LACZ vector. The LACZ gene was generated by PCR from the pBK-RSV (Stratagene) vector using primers LACZ EcoRI F- and LACZ NotI R-. The CMV-LACZ vector was then digested with AfIII (NEB) to linearize the construct, which was then transfected in C2C12 myoblasts using Lipofectamine 2000 (Invitrogen) following the manufacturer's instructions. […] Clonal lines were selected and screened for βgal levels using the myoblast FDG assay.
The assays were used the original 96-well format and new dose-response curves for myoblasts (N=3-6 replicates for each data point), myotubes (N=3-6 replicates for data point), and CMV-LacZ secondary assay (N=2 replicates for each data point) using concentrations of 0.5 μM, 1 μM, 5 μM, 10 μM, 20 μM, and 40 μM (Tables 9-16).

[2] = tested on: α7 integrin (LacZ reporter in α7βgal+/− myoblasts); assay: Myoblast α7+/LacZ integrin FDG assay (Burkin assay in myoblasts, 96-well); conditions: α7+/LacZ myoblasts, 96-well; for fold induction at 0.5 µM / fold induction at 1 µM / fold induction at 5 µM / fold induction at 10 µM / fold induction at 20 µM / fold induction at 40 µM: Mus musculus, Myoblast, 48 h, read-out: Burkin Assay in Myoblasts, value relative to DMSO
[3] = tested on: α7 integrin (LacZ reporter in α7+/LacZ myotubes); assay: Myotube α7 integrin FDG assay (Burkin assay in myotubes, 96-well); conditions: myotubes; for fold induction at 0.5 µM / fold induction at 1 µM / fold induction at 5 µM / fold induction at 10 µM / fold induction at 20 µM / fold induction at 40 µM: Mus musculus, Myotube, read-out: Burkin Assay in Myotubes (signal relative to DMSO)
[4] = 5 uM, C2C12 CMV-LacZ myotubes, fold relative to DMSO
[5] = 10 uM, C2C12 CMV-LacZ myotubes, fold relative to DMSO
[6] = 20 uM, C2C12 CMV-LacZ myotubes, fold relative to DMSO
[7] = 40 uM, C2C12 CMV-LacZ myotubes, fold relative to DMSO

Compound | fold induction at 0.5 µM ([2]; 0.5 uM) | fold induction at 1 µM ([2]; 1 uM) | fold induction at 5 µM ([2]; 5 uM) | fold induction at 10 µM ([2]; 10 uM) | fold induction at 20 µM ([2]; 20 uM) | fold induction at 40 µM ([2]; 40 uM) | fold induction at 0.5 µM ([3]; 0.5 uM) | fold induction at 1 µM ([3]; 1 uM) | fold induction at 5 µM ([3]; 5 uM) | fold induction at 10 µM ([3]; 10 uM) | fold induction at 20 µM ([3]; 20 uM) | fold induction at 40 µM ([3]; 40 uM) | CMV-LACZ in Myotubes, signal relative to DMSO [1, 4] | CMV-LACZ in Myotubes, signal relative to DMSO [1, 5] | CMV-LACZ in Myotubes, signal relative to DMSO [1, 6] | CMV-LACZ in Myotubes, signal relative to DMSO [1, 7] | Burkin Assay in Myoblasts, value relative to DMSO ([2]; 0.5 uM) | Burkin Assay in Myoblasts, value relative to DMSO ([2]; 1 uM) | Burkin Assay in Myoblasts, value relative to DMSO ([2]; 5 uM) | Burkin Assay in Myoblasts, value relative to DMSO ([2]; 10 uM) | other results
CCOc1ccc(NC(=O)CN2C(=O)NC(CCSC)C2=O)cc1 (stereo not shown) [MLS000772430-01] | 0.973 | 0.936 | 1.01 | 1.05 | 0.881 | 0.896 | 1.03 | 1.28 | 1.04 | 1.25 | 1.26 | 1.05 |  |  |  |  |  |  |  |  | CMV-LACZ in Myotubes (β-galactosidase activity relative to DMSO) ([1]; 5 uM): 0.8183; CMV-LACZ in Myotubes (β-galactosidase activity relative to DMSO) ([1]; 10 uM): 0.9094; CMV-LACZ in Myotubes (β-galactosidase activity relative to DMSO) ([1]; 20 uM): 0.8956; CMV-LACZ in Myotubes (β-galactosidase activity relative to DMSO) ([1]; 40 uM): 1.037
O=C(N/N=C/c1cn[nH]c1-c1ccc(F)cc1)c1ccncc1 [MLS000698686-01] |  |  |  |  |  |  |  |  |  |  |  |  | 0.8364 | 0.9727 | 0.8864 | 0.8864 | 1.037 | 1.018 | 1.054 | 1.075 | Burkin Assay in Myoblasts, value relative to DMSO ([2]; 20 uM): 0.8456; Burkin Assay in Myoblasts, value relative to DMSO ([2]; 40 uM): 0.8252; Burkin Assay in Myotubes (signal relative to DMSO) ([3]; 0.5 uM): 0.8838; Burkin Assay in Myotubes (signal relative to DMSO) ([3]; 1 uM): 0.6159; Burkin Assay in Myotubes (signal relative to DMSO) ([3]; 5 uM): 1.013; Burkin Assay in Myotubes (signal relative to DMSO) ([3]; 10 uM): 0.966; Burkin Assay in Myotubes (signal relative to DMSO) ([3]; 20 uM): 0.6986; Burkin Assay in Myotubes (signal relative to DMSO) ([3]; 40 uM): 0.9722
CC1(C)Cc2c(ccc3ccccc23)C(=O)N1 [MLS000525404-01] | 1 | 1.08 | 1.12 | 1.28 | 1.46 | 1.79 | 1.04 | 1.04 | 1.12 | 1.09 | 1.19 | 1.35 |  |  |  |  |  |  |  |  | fold induction at 5 µM ([1]; Mus musculus, C2C12, read-out: CMV-LACZ in Myotubes, signal relative to DMSO, 5 uM, C2C12 CMV-LacZ myotubes, fold relative to DMSO): 0.76; fold induction at 10 µM ([1]; Mus musculus, C2C12, read-out: CMV-LACZ in Myotubes, signal relative to DMSO, 10 uM, C2C12 CMV-LacZ myotubes, fold relative to DMSO): 0.873; fold induction at 20 µM ([1]; Mus musculus, C2C12, read-out: CMV-LACZ in Myotubes, signal relative to DMSO, 20 uM, C2C12 CMV-LacZ myotubes, fold relative to DMSO): 0.841; fold induction at 40 µM ([1]; Mus musculus, C2C12, read-out: CMV-LACZ in Myotubes, signal relative to DMSO, 40 uM, C2C12 CMV-LacZ myotubes, fold relative to DMSO): 0.75
O=Cc1ccc(C(=O)OCC(=O)N2CCCC2)cc1 [MLS001172577-01] |  |  |  |  |  |  |  |  |  |  |  |  | 0.8944 | 0.862 | 1.029 | 0.9627 | 0.996 | 0.9654 | 1.142 | 1.0758 | Burkin Assay in Myoblasts, value relative to DMSO ([2]; 20 uM): 1.0212; Burkin Assay in Myoblasts, value relative to DMSO ([2]; 40 uM): 0.9431; Burkin Assay in Myotubes (signal relative to DMSO) ([3]; 0.5 uM): 1.122; Burkin Assay in Myotubes (signal relative to DMSO) ([3]; 1 uM): 1.0349; Burkin Assay in Myotubes (signal relative to DMSO) ([3]; 5 uM): 1.131; Burkin Assay in Myotubes (signal relative to DMSO) ([3]; 10 uM): 1.101; Burkin Assay in Myotubes (signal relative to DMSO) ([3]; 20 uM): 1.14; Burkin Assay in Myotubes (signal relative to DMSO) ([3]; 40 uM): 0.7324
